Laboratory results as given in patent US20060264418A1, “6-(2,2,2-Trifluoroethylamino-7-chloro-2,3,4,5-tetrahydro-1h-benzo[d] azephine as a 5-ht2c receptor agonist” (priority 2003, published 2006).

Assays:
[1] = tested on: Wistar rats; conditions: general statement on standards; cited from earlier work
[2] = tested on: male NIH Swiss mice; experiment: Marble burying assay (with rotorod); assay type: in vivo, mouse; conditions: 30 min. burying session
Text: Marble burying in mice has been used to model anxiety disorders including obsessive-compulsive disorders (OCD) due to ethological study of the behavior (e.g. Gyertyan I. “Analysis of the marble burying response: Marbles serve to measure digging rather than evoke burying”, Behavioural Pharmacology 6: 24-31, (1995)) and due to the pharmacological effects of clinical standards (c.f., Njung′E K. Handley S L. “Evaluation of marble-burying behavior as a model of anxiety”, Pharmacology, Biochemistry & Behavior. 38: 63-67, (1991)); Borsini F., Podhorna J., and Marazziti, D. “Do animal models of anxiety predict anxiolytic effects of antidepressants?”, Psychopharmacology 163: 121-141, (2002)). Thus, drugs used in the treatment of generalized anxiety in humans (e.g. benzodiazepines) as well as compounds used to treat OCD (e.g. SSRIs like fluoxetine) decrease burying.
House experimentally-naïve male, NIH Swiss mice (Harlan Sprague-Dawley, Indianapolis, Ind.) weighing between 28-35 g in groups of 12 for at least three days prior to testing in a vivarium with 12 hr. light and dark cycles. Conduct experiments during the light cycle in a dimly lit experimental testing room. Dose mice with vehicle or compound and, after a specified pretreatment interval (generally 30 min.), place each mouse individually on a rotorod (Ugo Basile 7650) operating at a speed of 6 revolutions/min. and observe for falling. After 2 min. on the rotorod, place the mice individually in a 17×28×12 cm high plastic tub with 5 mm sawdust shavings on the floor that are covered with 20 blue marbles (1.5 cm diameter) placed in the center. After 30 min., count the number of marbles buried (⅔ covered with sawdust). Assess the compound's effect on marble burying with Dunnett's test and the effect on rotorod performance by Fisher's exact test.
Clinically effective standard compounds suppress marble burying at doses that are devoid of motor-impairing effects as measured on the rotorod. […]

[3] = tested on: male NIH Swiss mice; experiment: Nestlet shredding; assay type: in vivo, mouse; conditions: 30 min.
Text: Mice naturally will construct nests of material available in their living environment. Since this behavior is obsessive in nature, it has been used to model OCD (Mia Li, Denise Morrow and Jeffrey M. Witkin, “Decreases in nestlet shredding of mice by serotonin uptake inhibitors: comparison with marble burying”, Psychopharmacology, submitted Jul. 14, 2003). House experimentally-naïve male, NIH Swiss mice (Harlan Sprague-Dawley, Indianapolis, Ind.) weighing between 28-35 g in groups of 12 for at least three days prior to testing in a vivarium with a 12 hr. light/dark cycle. Conduct experiments during the light cycle in an experimental room with normal overhead fluorescent lighting. Dose mice with vehicle or test compound and after a specified pretreatment interval (generally 30 min.), place the mice individually in a 17×28×12 cm high plastic tub with about 5 mm sawdust shavings on the floor along with a pre-weighed multi-ply gauze pad (51 mm square). After 30 min., weigh the remainder of the gauze pad not removed by the mouse. Determine the weight of the gauze used for nestlet construction by subtraction. Compare the results for test compound treated mice to the results for vehicle control treated mice with Dunnett's test.
Clinically effective OCD treatment standard compounds suppress nestlet shredding at doses that are devoid of motor-impairing effects as measured by the rotorod test. […]

[4] = tested on: Wistar rats; experiment: Schedule-induced polydipsia; assay type: in vivo, rat
Text: Food-deprived rats exposed to intermittent presentations of food will drink amounts of water that are far in excess of their normal daily intake and in excess of their intake when given all of their food at one time (Falk J L. “Production of polydipsia in normal rats by an intermittent food schedule”, Science 133: 195-196, (1961)). This excessive behavior is persistent and has been used to model OCD.
Maintain Wistar rats on a food restricted diet (to maintain 85% free feeding weight), but with free access to water. Train the rats in a behavioral testing chamber to press a lever to receive a food pellet under a fixed interval schedule, such that the rats are rewarded with a 45 mg food pellet the first time they press a lever after a 120 second interval has elapsed. The fixed interval is then reset to 120 seconds and the process repeated. Thus, during a 90 min. test session, the rats can earn a maximum of 45 pellets. The behavioral chamber is also equipped with a water bottle that is weighed before and after the session to determine the amount of water consumed.
Administer test compounds on Tuesdays and Fridays. Determine control day performances on Thursdays. Administer compounds either orally at 60 min. before the beginning of a test session, or subcutaneously at 20 min. before the beginning of a test session. Compare the rates of lever pressing and water consumption for each animal's performance during sessions after test compound treatment with that animal's performance during control sessions, expressed as a percent of the control rate. Average the individual percent of control rates for each dose and calculate the standard error of the mean.
The in vivo efficacy of 5HT2C compounds at the 5HT2C receptor was confirmed by the prevention of effects of the 5HT2C agonists on excessive drinking by co-administration of the 5HT2C receptor antagonist, 6-chloro-5-methyl-N-(2-(2-methylpyridin-3-yl-oxy)pyridin-5-yl)aminocarbonyl)-2,3-dihydroindole.

## FC(F)(F)CNc1c(Cl)ccc2c1CCNCC2
other
  melting point: 183 to 185.2 °C

## CN(C)CCCN1c2ccccc2CCc2ccc(Cl)cc21 [chlomipramine]
[1]
  schedule-induced polydipsia, clinically effective OCD treatment standard compounds: suppress schedule-induced polydipsia without producing notable changes in motor patterns, food intake, or behavior the following day

## CN(C)CCCN1c2ccccc2Sc2ccc(Cl)cc21 [chlorpromazine, reference compound]
[2]
  marble burying behavior (relative to rotorod performance): decreased marble burying only at doses that also disrupt rotorod performance

## C[C@H](N)Cc1ccccc1 [d-amphetamine, reference compound]
[3]
  nestlet shredding (relative to motor effects, rotorod test): decrease nestlet shredding only at doses that produce motoric side effects
[4]; food restricted rats, 90 min. test session
  schedule-induced polydipsia (excessive drinking): decreases excessive drinking only at behaviorally stimulating doses
[4]; rats
  suppression of excessive drinking with co-administration of the 5-HT2C receptor antagonist: not prevented

## CNCCC(Oc1ccc(C(F)(F)F)cc1)c1ccccc1 (stereo not shown) [fluoxetine]
[1]
  schedule-induced polydipsia, clinically effective OCD treatment standard compounds: suppress schedule-induced polydipsia without producing notable changes in motor patterns, food intake, or behavior the following day
